Test results taken from ChEMBL document CHEMBL1201862, “PubChem BioAssay data set” (2004).
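96-well plates; 48 h exposure; 5 concentrations. Endpoints by linear interpolation between flanking doses. Not reached: highest tested concentration assigned. GI50 is the concentration that inhibits growth by half.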 Active and inactive are the calls of the source. Cut-off read from the data, not from the text of the source: active = GI50 up to about 1.1 µM and inactive = higher.

How the values were obtained:
Experiment in all cases: NCI-60 cell line screen, 48 h
A498 = test system: A498
K562 = test system: K562
NCI-H522 = test system: NCI-H522
SK-MEL-28 = test system: SK-MEL-28
ACHN = test system: ACHN
OVCAR-8 = test system: OVCAR-8
NCI-H226 = test system: NCI-H226
U-251 = test system: U-251
SF-539 = test system: SF-539
OVCAR-3 = test system: OVCAR-3
OVCAR-4 = test system: OVCAR-4
CCRF-CEM = test system: CCRF-CEM
SNB-19 = test system: SNB-19
COLO 205 = test system: COLO 205
TK-10 = test system: TK-10
LOX IMVI = test system: LOX IMVI

Measured: GI50

CCOC(=O)C(=O)CC1=Nc2ccccc2SC(c2cccc(C)c2)C1 (stereo not drawn)
inactive: A498 18.1 µM | K562 19.7 µM | NCI-H522 17.3 µM | SK-MEL-28 14.6 µM | ACHN 16.6 µM | OVCAR-8 12.6 µM | NCI-H226 16.9 µM | U-251 17.1 µM | SF-539 19 µM | OVCAR-3 19.5 µM | OVCAR-4 18 µM | CCRF-CEM 20.6 µM | SNB-19 18.3 µM | COLO 205 > 10 µM

O=C(O)c1ccc([C@@H]2C(=O)N(O)[C@@H]3C=CC[C@@H]32)cc1
inactive: K562 > 100 µM | NCI-H522 > 100 µM | SK-MEL-28 > 100 µM | OVCAR-8 > 100 µM | NCI-H226 > 100 µM | SF-539 > 100 µM | OVCAR-3 > 100 µM | CCRF-CEM > 100 µM | TK-10 > 100 µM | SNB-19 > 100 µM | LOX IMVI > 100 µM | COLO 205 > 100 µM

N#CC(C(=O)CCCC(=O)Nc1ccc(Cl)cc1Cl)c1ccccc1 (stereo not drawn)
inactive: K562 > 100 µM | SK-MEL-28 > 100 µM | ACHN > 100 µM | OVCAR-8 > 100 µM | NCI-H226 > 100 µM | U-251 > 100 µM | SF-539 > 100 µM | OVCAR-3 > 100 µM | OVCAR-4 > 100 µM | CCRF-CEM > 100 µM | TK-10 > 100 µM | SNB-19 > 100 µM | LOX IMVI > 100 µM | COLO 205 > 100 µM

COc1cc(C2C(C(=O)Nc3ccc(Cl)c(Cl)c3)=C(C)NC(C)=C2C(=O)Nc2ccc(Cl)c(Cl)c2)ccc1O
inactive: A498 12.2 µM | K562 6.68 µM | NCI-H522 3.65 µM | SK-MEL-28 13.9 µM | ACHN 10.8 µM | OVCAR-8 13.9 µM | NCI-H226 16.7 µM | U-251 13.9 µM | SF-539 10.2 µM | OVCAR-3 9.82 µM | OVCAR-4 5.3 µM | CCRF-CEM 3.26 µM | TK-10 19.1 µM | SNB-19 12.3 µM | LOX IMVI 11.4 µM | COLO 205 13.3 µM

COC(=O)C1=CCC2c3[nH]c4ccccc4c3CCN2C1 (stereo not drawn)
inactive: K562 > 354 µM | NCI-H522 154 µM | SK-MEL-28 > 354 µM | ACHN > 354 µM | OVCAR-8 > 354 µM | NCI-H226 203 µM | U-251 > 354 µM | SF-539 > 354 µM | OVCAR-3 275 µM | CCRF-CEM > 354 µM | TK-10 > 354 µM | SNB-19 193 µM | LOX IMVI > 354 µM | COLO 205 > 354 µM

C/C=C(/CCCCNCCCC)[Si](C)(C)C
inactive: A498 15.5 µM | K562 17.6 µM | NCI-H522 11.9 µM | SK-MEL-28 15.8 µM | ACHN 14 µM | OVCAR-8 15.7 µM | U-251 13.5 µM | SF-539 14.9 µM | OVCAR-3 14.5 µM | CCRF-CEM 8.26 µM | TK-10 15 µM | SNB-19 17.7 µM | LOX IMVI 14.2 µM | COLO 205 11 µM

Cn1cc(NC(=O)c2cc(NC(=O)Nc3cc(C(=O)Nc4cc(C(=O)NCCC(=N)N)n(C)c4)n(C)c3)cn2C)cc1C(=O)NCCC(=N)N
inactive: A498 25.1 µM | K562 51.8 µM | SK-MEL-28 25.4 µM | ACHN 25.2 µM | OVCAR-8 22.8 µM | U-251 26.6 µM | SF-539 18 µM | OVCAR-3 41.1 µM | OVCAR-4 38.7 µM | CCRF-CEM 22 µM | TK-10 22.5 µM | SNB-19 > 100 µM | LOX IMVI 25.4 µM | COLO 205 33 µM

CC(C)(C)OC(=O)N[C@H]1CC(=O)c2ccccc2N(CC(=O)O)C1=O
inactive: NCI-H522 > 100 µM | SK-MEL-28 > 100 µM | ACHN > 100 µM | OVCAR-8 > 100 µM | NCI-H226 > 100 µM | SF-539 > 100 µM | OVCAR-3 > 100 µM | OVCAR-4 > 100 µM | CCRF-CEM > 100 µM | TK-10 > 100 µM | SNB-19 > 100 µM | LOX IMVI > 100 µM | COLO 205 > 100 µM

COC(=O)/C(C#N)=C1\NN=NN1c1ccc(OC)cc1
inactive: A498 > 100 µM | K562 > 100 µM | NCI-H522 > 100 µM | SK-MEL-28 > 100 µM | ACHN > 100 µM | OVCAR-8 > 100 µM | NCI-H226 > 100 µM | U-251 > 100 µM | SF-539 > 100 µM | OVCAR-3 > 100 µM | CCRF-CEM > 100 µM | TK-10 > 100 µM | SNB-19 > 100 µM | LOX IMVI > 100 µM | COLO 205 > 100 µM

CC(=O)O[C@]12CCC[C@H]1C1(O)C(O)CCC[C@H]12 (stereo partly drawn)
inactive: K562 > 100 µM | NCI-H522 > 100 µM | SK-MEL-28 > 100 µM | ACHN > 100 µM | OVCAR-8 > 100 µM | NCI-H226 > 100 µM | U-251 > 100 µM | OVCAR-4 > 100 µM | CCRF-CEM > 100 µM | TK-10 > 100 µM | SNB-19 > 100 µM | LOX IMVI > 100 µM | COLO 205 > 100 µM

CCc1cccc(C(C)C)c1NC(=O)C(=O)C1C(=O)NC(=O)NC1=O
inactive: A498 > 100 µM | K562 > 100 µM | NCI-H522 > 100 µM | SK-MEL-28 > 100 µM | ACHN > 100 µM | OVCAR-8 > 100 µM | NCI-H226 > 100 µM | U-251 > 100 µM | SF-539 > 100 µM | OVCAR-3 > 100 µM | OVCAR-4 > 100 µM | CCRF-CEM > 100 µM | TK-10 > 100 µM | SNB-19 > 100 µM | LOX IMVI > 100 µM | COLO 205 > 100 µM

Cc1ccc(-n2c(=S)[nH]c3ccc(Br)cc3c2=O)cc1
inactive: A498 > 100 µM | K562 > 100 µM | NCI-H522 > 100 µM | ACHN > 100 µM | OVCAR-8 > 100 µM | NCI-H226 > 100 µM | U-251 > 100 µM | SF-539 > 100 µM | OVCAR-3 > 100 µM | OVCAR-4 > 100 µM | TK-10 > 100 µM | SNB-19 > 100 µM | LOX IMVI > 100 µM | COLO 205 > 100 µM

CCCCCCCCOCC(CO)OCCCCCCCC (stereo not drawn)
inactive: A498 18.8 µM | K562 18.4 µM | SK-MEL-28 19.2 µM | ACHN 17.2 µM | OVCAR-8 19.3 µM | NCI-H226 24.4 µM | U-251 17.3 µM | OVCAR-3 19.9 µM | OVCAR-4 19.2 µM | CCRF-CEM 22.5 µM | TK-10 19.2 µM | SNB-19 23.7 µM | LOX IMVI 17.6 µM | COLO 205 20.6 µM

O=C(CSc1nc(-c2ccccc2)c(-c2ccccc2)[nH]1)NNC(=S)Nc1ccccc1
inactive: A498 > 100 µM | NCI-H522 19.2 µM | SK-MEL-28 > 100 µM | ACHN 85.1 µM | OVCAR-8 46.7 µM | NCI-H226 > 100 µM | U-251 > 100 µM | SF-539 > 100 µM | OVCAR-3 59.8 µM | OVCAR-4 64 µM | CCRF-CEM 39.4 µM | TK-10 53.2 µM | SNB-19 > 100 µM | LOX IMVI 71 µM | COLO 205 61.7 µM
